Measured values: ChEMBL document CHEMBL3739285, “Fluorescent sulfonamide carbonic anhydrase inhibitors incorporating 1,2,3-triazole moieties: Kinetic and X-ray crystallographic studies” (Bioorg Med Chem, 2016)
≈ marks a conversion by molar mass, not a printed value.

How the values were obtained:
Carbonic anhydrase 9 = Carbonic anhydrase 9 (Homo sapiens, UniProt Q16790)
Description: Inhibition of human carbonic anhydrase-9 preincubated for 15 mins by stopped flow CO2 dehydration method

Carbonic anhydrase 2 = Carbonic anhydrase 2 (Homo sapiens, UniProt P00918); test: Inhibition of human carbonic anhydrase-2 preincubated for 15 mins by stopped flow CO2 dehydration method
Carbonic anhydrase 1 = Carbonic anhydrase 1 (Homo sapiens, UniProt P00915); test: Inhibition of human carbonic anhydrase-1 preincubated for 15 mins by stopped flow CO2 dehydration method
Sequence of Carbonic anhydrase 1 (P00915 whole entry): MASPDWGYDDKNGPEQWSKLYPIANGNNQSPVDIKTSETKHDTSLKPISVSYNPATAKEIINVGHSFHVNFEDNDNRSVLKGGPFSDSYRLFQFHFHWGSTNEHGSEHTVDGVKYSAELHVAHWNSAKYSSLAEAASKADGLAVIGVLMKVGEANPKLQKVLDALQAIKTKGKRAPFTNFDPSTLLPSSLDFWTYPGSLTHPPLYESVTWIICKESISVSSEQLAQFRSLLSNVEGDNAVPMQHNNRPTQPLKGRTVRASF

Carbonic anhydrase 12 = Carbonic anhydrase 12 (Homo sapiens, UniProt O43570); test: Inhibition of human carbonic anhydrase-12 preincubated for 15 mins by stopped flow CO2 dehydration method
Sequence of Carbonic anhydrase 12 (O43570 whole entry): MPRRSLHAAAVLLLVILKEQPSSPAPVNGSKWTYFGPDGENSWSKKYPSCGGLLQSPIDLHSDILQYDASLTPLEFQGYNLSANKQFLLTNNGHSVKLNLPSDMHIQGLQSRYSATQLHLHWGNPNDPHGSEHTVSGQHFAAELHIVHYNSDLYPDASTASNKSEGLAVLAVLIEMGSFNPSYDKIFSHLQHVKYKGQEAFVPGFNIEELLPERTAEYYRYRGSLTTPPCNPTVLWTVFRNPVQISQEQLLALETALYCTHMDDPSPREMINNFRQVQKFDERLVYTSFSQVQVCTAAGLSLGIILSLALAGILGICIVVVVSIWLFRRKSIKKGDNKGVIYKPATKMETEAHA

[1] = Solubility of the compound in phosphate buffer at pH 7.4; type: physicochemical
Carbonic anhydrase 14 = Carbonic anhydrase 14 (Homo sapiens, UniProt Q9ULX7)
Sequence of Carbonic anhydrase 14 (Q9ULX7 whole entry): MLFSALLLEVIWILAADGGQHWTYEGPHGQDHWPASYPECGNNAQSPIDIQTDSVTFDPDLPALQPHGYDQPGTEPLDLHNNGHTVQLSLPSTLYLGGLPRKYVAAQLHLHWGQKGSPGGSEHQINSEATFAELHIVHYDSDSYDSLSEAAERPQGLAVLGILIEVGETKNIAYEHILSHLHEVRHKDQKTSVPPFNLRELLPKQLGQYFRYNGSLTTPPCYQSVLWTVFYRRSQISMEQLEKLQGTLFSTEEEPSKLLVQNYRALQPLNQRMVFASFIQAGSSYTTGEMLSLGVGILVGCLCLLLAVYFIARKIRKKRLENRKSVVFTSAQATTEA
Description: Inhibition of human carbonic anhydrase-14 preincubated for 15 mins by stopped flow CO2 dehydration method

Homo sapiens = species on record: Homo sapiens; test: Selectivity ratio of Ki for human carbonic anhydrase-9 to Ki for human carbonic anhydrase-2

| Ki (Carbonic anhydrase 9) [nM] | Ki (Carbonic anhydrase 2) [nM] | Ki (Carbonic anhydrase 1) [µM] | Ki (Carbonic anhydrase 12) [nM] | solubility [1] [µg/mL] | Ki (Carbonic anhydrase 14) [nM] | Ratio Ki (Homo sapiens) | Compound |
| --- | --- | --- | --- | --- | --- | --- | --- |
| 36.9 | 127 | 7.63 | 20.5 |  |  |  | NS(=O)(=O)c1cccc(-n2cc(CNC(=S)Nc3ccc(-c4c5ccc(=O)cc-5oc5cc(O)ccc45)c(C(=O)O)c3)nn2)c1 |
| 8.1 | 36 | 2.56 | 4.1 | 3800 (≈ 5.91 mM) |  |  | NS(=O)(=O)c1ccc(-n2cc(CNC(=S)Nc3ccc(-c4c5ccc(=O)cc-5oc5cc(O)ccc45)c(C(=O)O)c3)nn2)cc1 |
| 24.3 | 88 | 6.42 | 10.7 |  | 31.4 | 3.62 | CN(C)c1ccc2c(-c3ccc(NC(=S)NCc4cn(-c5cccc(S(N)(=O)=O)c5)nn4)cc3C(=O)O)c3ccc(=[N+](C)C)cc-3oc2c1 |
|  |  |  | 7 | 1200 (≈ 2.08 mM) | 41 |  | NS(=O)(=O)c1ccc(CNC(=S)Nc2ccc(-c3c4ccc(=O)cc-4oc4cc(O)ccc34)c(C(=O)O)c2)cc1 |
|  |  |  |  |  | 33 |  | NS(=O)(=O)c1ccc(CCNC(=S)Nc2ccc(-c3c4ccc(=O)cc-4oc4cc(O)ccc34)c(C(=O)O)c2)cc1 |
